The source of these data is patent US20100029619A1, “FUSED HETEROCYCLIC COMPOUND” (TAKEDA PHARMACEUTICAL COMPANY LIMTED, priority 2006, published 2010).

The structures appear in SMILES notation.

The melting point is the temperature of the solid-liquid transition. For `Cc1cccc2nc(NC(=O)c3ccc(C4(C(=O)O)CCC4)cc3)cn12` [Example 188, 1-{4-[(5-methylimidazo[1,2-a]pyridin-2-yl)carbamoyl]phenyl}cyclobutanecarboxylic acid], the melting point was 272 °C. On to `O=C(Nc1cn2cc(Cl)ccc2n1)c1ccc(C2(C(=O)O)CCC2)cc1` [Example 190, 1-{4-[(6-chloroimidazo[1,2-a]pyridin-2-yl)carbamoyl]phenyl}cyclobutanecarboxylic acid], for which the melting point is 317.7 °C (dec.). As for `CC(C)(CO)c1ccc(C(=O)Nc2cn3cc(-c4ccoc4)ccc3n2)cc1` [Example 465, N-[6-(3-furyl)imidazo[1,2-a]pyridin-2-yl]-4-(2-hydroxy-1,1-dimethylethyl)benzamide], the figure is 246 to 248 °C; as for `CC(C)(C)c1ccc(C(=O)Nc2cn3nc(-c4cnn(CCO)c4)ccc3n2)cc1` [Example 178, 4-tert-butyl-N-{6-[1-(2-hydroxyethyl)-1H-pyrazol-4-yl]imidazo[1,2-b]pyridazin-2-yl}benzamide], 226 to 229 °C; as for `COC(=O)C(C)(C)c1ccc(C(=O)Nc2cn3cc(Cl)ccc3n2)cc1` [Example 30, methyl 2-{4-[(6-chloroimidazo[1,2-a]pyridin-2-yl)carbamoyl]phenyl}-2-methylpropanoate], 245 to 246 °C. `Cc1cccc2nc(NC(=O)c3ccc(C(C)(C)C)cc3)cn12.Cl` yielded a melting point of 204 to 205 °C. As to `CC(C)(C)c1ccc(C(=O)Nc2cn3cc(-c4ccoc4)ccc3n2)cc1` [Example 61, 4-tert-butyl-N-[6-(3-furyl)imidazo[1,2-a]pyridin-2-yl]benzamide], the melting point is 258 to 259 °C.
